Test results published in ChEMBL document CHEMBL1201862, “PubChem BioAssay data set” (2004).
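Test compounds were applied to cells in 96-well plates for 48 hours at 5 doses. The concentration for 50% growth inhibition is given as GI50.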 The source made the active and inactive calls. Cut-off read from the data, not from the text of the source: active = GI50 up to about 1.1 µM and inactive = higher.

Assays:
Experiment in all cases: NCI anticancer screen, dose series, 48 h
786-0 = system: 786-0
A498 = system: A498
A549 = system: A549
ACHN = system: ACHN
BT-549 = system: BT-549
CAKI-1 = system: CAKI-1
CCRF-CEM = system: CCRF-CEM
COLO 205 = system: COLO 205
DU-145 = system: DU-145
EKVX = system: EKVX
HCC 2998 = system: HCC 2998
HCT-116 = system: HCT-116
HCT-15 = system: HCT-15
HL-60 = system: HL-60
HOP-62 = system: HOP-62
HOP-92 = system: HOP-92
HT-29 = system: HT-29
Hs-578T = system: Hs-578T
IGROV-1 = system: IGROV-1
K562 = system: K562
KM12 = system: KM12
LOX IMVI = system: LOX IMVI
M14 = system: M14
MCF7 = system: MCF7
MDA-MB-231 = system: MDA-MB-231
MDA-MB-435 = system: MDA-MB-435
MDA-N = system: MDA-N
MOLT-4 = system: MOLT-4
Malme-3M = system: Malme-3M
NCI-H226 = system: NCI-H226
NCI-H23 = system: NCI-H23
NCI-H460 = system: NCI-H460
NCI-H522 = system: NCI-H522
NCI/ADR-RES = system: NCI/ADR-RES
OVCAR-3 = system: OVCAR-3
OVCAR-4 = system: OVCAR-4
OVCAR-5 = system: OVCAR-5
OVCAR-8 = system: OVCAR-8
PC-3 = system: PC-3
RPMI-8226 = system: RPMI-8226
RXF 393 = system: RXF 393
SF-268 = system: SF-268
SF-295 = system: SF-295
SF-539 = system: SF-539
SK-MEL-28 = system: SK-MEL-28
SK-MEL-2 = system: SK-MEL-2
SK-MEL-5 = system: SK-MEL-5
SK-OV-3 = system: SK-OV-3
SN12C = system: SN12C
SNB-19 = system: SNB-19
SNB-75 = system: SNB-75
SR = system: SR
SW-620 = system: SW-620
T47D = system: T47D
TK-10 = system: TK-10
U-251 = system: U-251
UACC-257 = system: UACC-257
UACC-62 = system: UACC-62
UO-31 = system: UO-31

In the case of `Cc1c2cccc-2c(OCCO)cc2c3ccccc3n(C)c12`, the GI50 (786-0) is reported as 3.37 µM (inactive), the GI50 (A498) is reported as 7.59 µM (inactive) and the GI50 (A549) is reported as 3.76 µM (inactive). For the same compound, the GI50 (ACHN) was 5.12 µM (inactive), the GI50 (BT-549) was 3.45 µM (inactive) and the GI50 (CAKI-1) was 10.2 µM (inactive). The GI50 (CCRF-CEM) was 1.92 µM (inactive), the GI50 (COLO 205) was 1.69 µM (inactive) and the GI50 (DU-145) was 6.79 µM (inactive). For the same compound, the GI50 (EKVX) was 2.63 µM (inactive), the GI50 (HCC 2998) was 3.64 µM (inactive) and the GI50 (HCT-116) was 3.16 µM (inactive). The GI50 (HCT-15) was 6.11 µM, the GI50 (HL-60) was 2.16 µM (inactive) and the GI50 (HOP-62) was 2.56 µM (inactive). For the same compound, the GI50 (HOP-92) was 1.77 µM (inactive), the GI50 (HT-29) was 4.24 µM (inactive) and the GI50 (Hs-578T) was 2.6 µM (inactive). For the same compound, the GI50 (IGROV-1) was 1.49 µM (inactive), the GI50 (K562) was 3.72 µM (inactive) and the GI50 (KM12) was 3.21 µM (inactive). For the same compound, the GI50 (LOX IMVI) was 2.77 µM (inactive), the GI50 (M14) was 3.44 µM (inactive) and the GI50 (MCF7) was 3.65 µM (inactive). For the same compound, the GI50 (MDA-MB-231) was 2.75 µM (inactive), the GI50 (MDA-MB-435) was 4.35 µM (inactive) and the GI50 (MDA-N) was 3.65 µM (inactive). The GI50 (MOLT-4) was 3.86 µM (inactive), the GI50 (Malme-3M) was 3.85 µM (inactive) and the GI50 (NCI-H226) was 5.58 µM (inactive). The GI50 (NCI-H23) was 3.4 µM (inactive), the GI50 (NCI-H460) was 3.73 µM (inactive) and the GI50 (NCI-H522) was 2.18 µM (inactive). The GI50 (NCI/ADR-RES) was 30.8 µM (inactive), the GI50 (OVCAR-3) was 1.46 µM (inactive) and the GI50 (OVCAR-4) was 3.09 µM (inactive). The GI50 (OVCAR-5) was 4.83 µM (inactive), the GI50 (OVCAR-8) was 2.9 µM (inactive) and the GI50 (PC-3) was 3.18 µM (inactive). For the same compound, the GI50 (RPMI-8226) was 2.81 µM (inactive), the GI50 (RXF 393) was 5.57 µM (inactive) and the GI50 (SF-268) was 4.02 µM (inactive). The GI50 (SF-295) was 3.67 µM (inactive), the GI50 (SF-539) was 2.54 µM (inactive) and the GI50 (SK-MEL-28) was 3.73 µM (inactive). The GI50 (SK-MEL-2) was 3.15 µM (inactive), the GI50 (SK-MEL-5) was 2.12 µM (inactive) and the GI50 (SK-OV-3) was 1.58 µM (inactive). The GI50 (SN12C) was 3.13 µM (inactive), the GI50 (SNB-19) was 5.09 µM (inactive) and the GI50 (SNB-75) was 5.28 µM (inactive). The GI50 (SR) was 2.34 µM (inactive), the GI50 (SW-620) was 4.08 µM (inactive) and the GI50 (T47D) was 3.1 µM (inactive). For the same compound, the GI50 (TK-10) was 10.7 µM (inactive), the GI50 (U-251) was 1.87 µM (inactive) and the GI50 (UACC-257) was 4.36 µM (inactive). For the same compound, the GI50 (UACC-62) was 4.7 µM (inactive) and the GI50 (UO-31) was 2.57 µM (inactive).

For `O=C1/C(=C\c2ccc(Cl)cc2Cl)Sc2scc(-c3cccc([N+](=O)[O-])c3)[n+]21`, the GI50 (786-0) was 3.39 µM (inactive), the GI50 (A498) was 49 µM (inactive) and the GI50 (A549) was 18.1 µM (inactive). The GI50 (ACHN) was 3.33 µM (inactive), the GI50 (BT-549) was 4.45 µM (inactive) and the GI50 (CAKI-1) was 3.03 µM (inactive). The GI50 (CCRF-CEM) was 0.291 µM (active), the GI50 (COLO 205) was 0.59 µM (active) and the GI50 (DU-145) was 14 µM (inactive). For the same compound, the GI50 (EKVX) was 7.57 µM (inactive), the GI50 (HCC 2998) was 7.64 µM (inactive) and the GI50 (HCT-116) was 5.2 µM (inactive). For the same compound, the GI50 (HCT-15) was 1.81 µM, the GI50 (HL-60) was 0.49 µM (active) and the GI50 (HOP-62) was 16.5 µM (inactive). The GI50 (HOP-92) was 5.89 µM (inactive), the GI50 (HT-29) was 3.28 µM (inactive) and the GI50 (Hs-578T) was 24.7 µM (inactive). The GI50 (IGROV-1) was 6.31 µM (inactive), the GI50 (K562) was 3.1 µM (inactive) and the GI50 (KM12) was 11.6 µM (inactive). For the same compound, the GI50 (LOX IMVI) was 1.55 µM (inactive), the GI50 (M14) was 6.04 µM (inactive) and the GI50 (MCF7) was 3.98 µM (inactive). The GI50 (MDA-MB-231) was 9.14 µM (inactive), the GI50 (MDA-MB-435) was 10 µM (inactive) and the GI50 (MDA-N) was 4.28 µM (inactive). For the same compound, the GI50 (MOLT-4) was 1.45 µM (inactive), the GI50 (Malme-3M) was 8.11 µM (inactive) and the GI50 (NCI-H226) was 13.5 µM (inactive). For the same compound, the GI50 (NCI-H23) was 12.6 µM (inactive), the GI50 (NCI-H460) was 13.1 µM (inactive) and the GI50 (NCI-H522) was 1.43 µM (inactive). For the same compound, the GI50 (NCI/ADR-RES) was 8.75 µM (inactive), the GI50 (OVCAR-3) was 8.13 µM (inactive) and the GI50 (OVCAR-4) was 12 µM (inactive). For the same compound, the GI50 (OVCAR-5) was 15.5 µM (inactive), the GI50 (OVCAR-8) was 8.15 µM (inactive) and the GI50 (PC-3) was 15.6 µM (inactive). The GI50 (RPMI-8226) was 4.48 µM (inactive), the GI50 (RXF 393) was 6.25 µM (inactive) and the GI50 (SF-268) was 9.1 µM (inactive). For the same compound, the GI50 (SF-295) was 24.9 µM (inactive), the GI50 (SF-539) was 1.81 µM (inactive) and the GI50 (SK-MEL-28) was 14.6 µM (inactive). The GI50 (SK-MEL-2) was 14.2 µM (inactive), the GI50 (SK-MEL-5) was 2.09 µM (inactive) and the GI50 (SK-OV-3) was 41 µM (inactive). For the same compound, the GI50 (SN12C) was 5.33 µM (inactive), the GI50 (SNB-19) was 12.8 µM (inactive) and the GI50 (SNB-75) was 19.9 µM (inactive). The GI50 (SR) was 2.58 µM (inactive), the GI50 (SW-620) was 3.62 µM (inactive) and the GI50 (T47D) was 12.2 µM (inactive). For the same compound, the GI50 (TK-10) was 4.07 µM (inactive), the GI50 (U-251) was 13.9 µM (inactive) and the GI50 (UACC-257) was 5.79 µM (inactive). For the same compound, the GI50 (UACC-62) was 8.65 µM (inactive) and the GI50 (UO-31) was 3.47 µM (inactive).
